In patent US12060408B2, “Screening assays, modulators and modulation of activation of Receptor for Advanced Glycation End-products (RAGE)” (Monash University, priority 2017, dated 2024):
Entries after “also recorded” stand apart in the source; their conditions may differ.

What was measured:
[1] = tested on: primary murine aortic endothelial cells (PMAEC); assay: Expression of pro-inflammatory markers by real-time RT-PCR in primary murine aortic endothelial cells; assay type: cell-based, mouse
Description: Primary aortic endothelial cells (PMAEC) were isolated from the aortae of (wild-type) C57bl6 mice and AGER KO mice and cultured in Dulbecco's modified Eagle's medium (DMEM)/F12 endothelial cell growth supplement (ECGS) supplemented media. Chinese Hamster Ovary (CHO) cells were cultured using F12 media (10% FCS with 2 mM glutamine). Human microvascular endothelial cells (HMEC) were cultured in MCDB 131 medium (10% FCS with 10 mM glutamine, EGF and hydrocortisone).
(§1) Cellular Expression of Pro-Inflammatory Markers and Mediators by Quantitative Real-Time PCR
(§2) After 2 hours of exposure to Ang II (1 μM) or the RAGE ligand, S100A8/A9 (5 ng/ml) cells were placed in Trizol, mRNA extracted and cDNA synthesized. Changes in the gene expression of the NFκB subunit, p65 (RelA) or NFκB-activated target genes (e.g ICAM-1, VCAM-1) were estimated by quantitative real-time RT-PCR, performed using the TaqMan system based on real-time detection of accumulated fluorescence (ABI Prism 7700, Perkin-Elmer Inc, PE Biosystems, Foster City, CA, USA). Gene expression was normalized to 18S mRNA and reported as fold change compared to the level of expression in untreated control mice/cells, which were given an arbitrary value of 1.
Selective Silencing of Gene Expression Using siRNA
PMAEC from C57b/6 mice were also transfected with siRNA to RAGE (2 nM) Ambion, ID:s62119), p65 (RelA) (10 nM; Ambion, ID:s72857), MyD88 (10 nM; Ambion. ID:s201719), PKCζ (10 nM; Ambion, ID:s71716), IQGAP-1, Ambion, ID:s78119), Diaph1 (10 nM; sense5′-[…], antisense 3′-[…]; Invitrogen) or scrambled control #1 (2 nM or 10 nM; Ambion) using Lipofectamine RNAiMAX (Invitrogen) as per manufacturer's instructions. Cells were allowed to recover in media containing 10% FBS for 16 hours prior to treatment with 1 μM Ang II or 5 ng/ml of the RAGE ligand, S100A8/A9, as a signalling control.

[2] = tested on: RAGE ligand-independent activation of RAGE by activated AT1R; assay: Ang II-induced NFκB activation (p65 gene expression, SEAP reporter) in AT1R-CHO cells with RAGE constructs; assay type: cell-based, human
Description: Generation of Transgenic Chinese Hamster Ovary Cells
100 ng of AT1R-Rluc8 construct was transfected into CHO cells using Lipofectamine 2000 (Thermo). Stable transfectants were selected using G418. AT1R—CHO were then transiently transfected with RAGE constructs using Lipofectamine 2000 (Invitrogen) and incubated for 16 h. The Homo sapiens AGER transcript variant 1 coding sequence (NM_001136) was synthesised and cloned between the NheI and XbaI sites of pCIneo (Promega) to generate the vector pCIneo-RAGE. This plasmid was then used to generate a library of mutant AGER clones (NP_001127). Primers 1-RAGE-SP-5′ and mCherry-XhoI-NotI-3′ were used to amplify the coding sequence of mCherry from the vector pmCherry-C1. The resultant PCR product was then used as template for a second PCR using primers 2-RAGE-SP-5′ and mCherry-XhoI-NotI-3′. The PCR product generated was digested with NheI and NotI and inserted between the NheI and NotI sites of pCIneo to generate pCIneo-SP-mCherry. The sequence of the insert was confirmed by DNA sequencing (Micromon, Monash University). […]
as §1, §2
Oligopeptides (Cherry-TAT (control), mCherry-TAT-RAGE362-404 and mCherry-S391A-TAT-RAGE362-404 were generated by transformation of the Escherichia coli strain ClearColi BL21 (DE3; Lucigen). A single transformed colony was inoculated into 50 ml 2YT medium containing 100 μg/ml ampicillin and the culture was grown overnight at 37° C. with shaking at 250 rev/min. 10 ml overnight culture was used to inoculate 1 litre 2YT medium containing 100 μg/ml ampicillin and the culture was grown at 37° C. with shaking at 250 rev/min. When the cultures reached an OD600 of 0.8, the temperature was shifted to 15° C. for 30 min after which protein expression was induced by the addition of 1 mM isopropyl β-D-1-thiogalacto-pyranoside (IPTG). Following the addition of IPTG the cultures were grown for ˜16 h at 15° C. with shaking at 250 rev/min. Cells were harvested by centrifugation (3500 g, 4° C., 20 min) and resuspended in ice-cold lysis buffer (50 mM Tris pH 7.4, 300 mM NaCl, 10 mM imidazole and 5 mM beta-mercaptoethanol). The resuspended cells were sonicated and insoluble material was pelleted by centrifugation (13 000 g, 4° C., 30 min). The supernatant was filtered (0.2 μm) and applied onto a gravity-flow column with a 1 ml Ni-NTA Agarose resin bed volume (Qiagen) pre-equilibrated with lysis buffer. After the supernatant was passed over the resin, the column was washed with 100 ml of wash buffer (20 mM imidazole, 50 mM Tris pH 7.4, 150 mM NaCl, 5 mM beta-mercaptoethanol). His-tagged TAT-mCherry and TAT-mCherry-RAGE peptides were eluted from the resin using elution buffer (250 mM imidazole, 50 mM Tris pH 7.4, 150 mM NaCl, 5 mM beta-mercaptoethanol). […]

PMAEC = assay: Generation of superoxide and additional markers of oxidative stress (DCFH, Rac-1 G-LISA, oxidized glutathione) in PMAEC; assay type: cell-based, mouse
Description: Generation of Superoxide and Additional Markers of Oxidative Stress
To quantitate superoxide production induced by Ang II, a vessel chamber assay was used to measure total cytoplasmic and mitochondrial superoxide production in real time in PMAEC from AGER KO and C57Bl6 aortae. PMAEC were grown on collagen coated cover slips and mounted into a sealed glass chamber when they were 80% confluent. The chambers were perfused with Krebs buffer for an hour with fluorescent readings taken every 10 minutes to establish baseline readings. The cells were then perfused with 1 μM Ang II for 60 minutes and fluorescent readings were taken every 1 minute for a further 10 minutes. Fluorescence readings were expressed as change (Δ) in fluorescence arbitrary units from baseline. Levels of the activated NADPH oxidase subunit, Rac-1 activation was also measured in cell lysates after exposure to Ang II using a Rac-1 G-LISA activation assay (Cytoskeleton), as per manufacturers' instructions. Additional markers of oxidative stress were also assayed including levels of oxidized glutathione, (Cayman Chemical Company, US), performed as per manufacturer's instructions.

| Substance | inhibition of VCAM-1 induction in response to Ang II or S100A8/A9 ([1]; PMAEC endogenously replete in RAGE) | inhibition of Ang II-dependent p65 induction after pre-treatment with wild-type RAGE362-404 peptide ([2]; AT1R-CHO cells) | inhibition of Ang II-dependent p65 induction with subsequent wild-type RAGE362-404 in thousand-fold excess ([2]; AT1R-CHO cells) | inhibition of Ang II-induced p65 and PCNA gene expression in the absence of targets for RAGE phosphorylation ([2]; AT1R-CHO cells transfected with full length S391Q-cRAGE) | ability of the RAGE construct to be activated and mediate pro-inflammatory signalling in response to Ang II ([2]; construct expressed in AT1R-CHO cells, no wild-type RAGE) | inhibition of RAGE ligand-independent activation of wild-type RAGE by activated AT1R ([2]; summary statement, cell system not given) | induction of pro-inflammatory genes ([1]; PMAEC from AGER KO mice) | markers of canonical or non-canonical activation of NFκB ([1]; PMAEC from AGER KO mice) | canonical and non-canonical signalling downstream of NFκB (CXCL2, CXCL12) ([1]; PMAEC from C57bl6 mice) | expression of pro-inflammatory genes (ICAM-1, VCAM-1, TNFα, MCP-1) ([1]; PMAEC from C57bl6 mice, Ang II 1 μM or S100A8/A9) | NFκB-dependent induction of VCAM-1 gene expression ([1]; PMAEC with AGER expression silenced using siRNA) | activation of p65-NFκB ([2]; AT1R-CHO cells expressing full-length human RAGE, 1 μM) | expression of p65-NFκB / NFκB activation ([2]; AT1R-CHO cells without RAGE, 1 μM) | ROS production and oxidative stress (PMAEC; PMAEC from AGER KO mice) | production of ROS and other markers of oxidative stress (activated rac-1, oxidised glutathione) (PMAEC; PMAEC from C57bl6 mice, 1 μM) |
| --- | --- | --- | --- | --- | --- | --- | --- | --- | --- | --- | --- | --- | --- | --- | --- |
| L362WQRRQRRGEERKAPENQEEEEERAELNQAEEPEAGESSTGGP404 (LWQRRQRRGEERKAPENQEEEEERAELNQAEEPEAGESSTGGP; listed as Homo sapiens) [S391A-RAGE362-404, S391A mutant RAGE cytosolic tail; non-functional substitute for RAGE] | inhibitory effect | not reversed | observed | maintained; also recorded: inhibitory effects | not activated | inhibits |  |  |  |  |  |  |  |  |  |
| angiotensin II (DRVYIHPF) [Ang II, cognate ligand of AT1R] |  |  |  |  |  |  | does not lead to the induction | does not lead to | induction of both canonical and non-canonical signalling | increased expression | preventing | able to induce activation | unable to induce | does not lead to | rapid increase |
